US10851403B2, “Cyclin-dependent kinase substrate” (SYSMEX CORPORATION, priority 2017, dated 2020)
No end group written: not given here. *: point of attachment. Biotin = O=C1N[C@H]2[C@H](CS[C@H]2CCCCC(=O)*)N1; Ahx = NCCCCCC(=O)O

What was measured:
Assay type in all cases: biochemical
CDK4 and CDK6 = assay: CDK reactivity test 2 (Test Example 2), CDK4/6 reactivity; conditions: [(V2/V1)+(V4/V3)]/2; relative value when Comparative Polypeptide 2 is set as 1
Method: (§1) In a tube, 15 μL of a CDK solution (composition: 10 μg/mL CDK/cyclin complex, 1% BSA, triethanolamine buffer solution (pH 7.5)) containing CDK1/cyclin A2, CDK2/cyclin E1, CDK4/cyclin D3 or CDK6/cyclin D3 (all manufactured by SignalChem) and 15 μL of a kinase reaction solution (composition: 4 μg/mL substrate peptide, 50 mM HEPES-NaOH buffer solution (pH 7.4), 15 mM MgCl2, 2 mM ATP-γS) containing Polypeptide 1, Comparative Polypeptide 1 or Comparative Polypeptide 2 as a substrate peptide were mixed, and the tube was incubated at 37° C. for 1 hour with stirring at 900 rpm using a constant temperature shaker. 21.4 μL of a fluorescent labeling reagent (composition: 180 μg/ml 5-(iodoacetamide)-FITC, 50 mM EDTA, 300 mM MOPS-NaOH, pH 7.4) was added to the tube and pipetted 5 times, then the tube was shielded from light and incubated at 37° C. for 10 minutes with stirring at 400 rpm using a constant temperature shaker. 100 μL of a fluorescent labeling reaction stop solution (composition: 30 mM N-acetyl-L-cysteine, 2 M MOPS-NaOH, pH 7.4) was added to the tube and pipetted 5 times. 30 μL (containing 0.15 μg of magnetic St-Ab beads) of a HISCL HBsAg R2 reagent (manufactured by Sysmex Corporation) was added to the tube, then the tube was shielded from light and incubated at 37° C. for about 10 minutes with stirring at 1600 rpm using a constant temperature shaker. The beads in the tube were precipitated using a magnet, and the supernatant was removed. Then, TBS-T was added, and the beads were washed at 37° C. for about 10 seconds with stirring at 1600 rpm. This washing step was performed three times in total. 100 μL of an ALP-labeled anti-FITC antibody solution (composition: 0.2 to 1 μg/mL ALP-labeled anti-FITC antibody (manufactured by Jackson ImmunoResearch Laboratories, Inc.), 100 mM MES, 150 mM NaCl, 1% BSA, pH 6.5) was added to the tube, then the tube was shielded from light and incubated at 37° C. for about 10 minutes with stirring at 1600 rpm using a constant temperature shaker. The beads in the tube were precipitated using a magnet, and the supernatant was removed. Then, TBS-T was added, and the beads were washed at 37° C. for about 10 seconds with stirring at 1600 rpm. This washing step was performed three times in total. 50 μL of a buffer solution containing Tris (manufactured by Sysmex Corporation, HISCL R4 reagent) was added to the tube and stirred at 2000 rpm at 37° C. for 10 seconds using a constant temperature shaker. 100 μL of a buffer solution (manufactured by Sysmex Corporation, HISCL R5 reagent) containing an ALP luminescent substrate (disodium 2-chloro-5-(4-methoxyspiro{1,2-dioxetane-3,2′-(5′-chloro)-tricyclo[3.3.1.1^3,7]decan}-4-yl)-1-phenyl phosphate) was added to the tube, then the tube was shielded from light and incubated at 37° C. for 4 minutes with stirring at 1600 rpm using a constant temperature shaker. The beads in the tube were precipitated using a magnet, and the supernatant was transferred to a black plate. Luminescence was detected with a luminometer, and the luminescence intensity was measured.
Test Example 2 was carried out in the same manner as in Test Example 1 except that CDK4 or CDK6 was used as CDK and the polypeptides (Polypeptides 2 to 13) obtained in Production Example 2 or Comparative Polypeptide 2 was used as a substrate peptide. V1 to V4 below:
V 1: luminescence intensity when using Comparative Polypeptide 2 and CDK4,
V 2: luminescence intensity when using any of Polypeptides 2 to 17 and A to E, and CDK4,
V 3: luminescence intensity when using Comparative Polypeptide 2 and CDK6, and
V 4: luminescence intensity when using any of Polypeptides 2 to 17 and A to E, and CDK6
were measured, and CDK4/6 reactivity was calculated based on the formula ([(V2/V1)+(V4/V3)]/2). CDK4/6 reactivity is a relative value when the CDK4/6 reactivity of Comparative Polypeptide 2 is set as 1. […]

CDK4/cyclin D3 = biological target: T1, CDK4/cyclin D3 (Homo sapiens, UniProt P11802); assay: CDK reactivity test 1 (Test Example 1); conditions: 10 μg/mL CDK/cyclin complex, 4 μg/mL substrate peptide, ATP-γS, 37° C. 1 hour
T1 construct: purchased SignalChem
Method: (§2) The reactivity of the polypeptide obtained in Production Example 1 to CDK1, CDK2, CDK4 and CDK6 was examined. Specifically, it was performed as follows.
as §1

CDK2/cyclin E1 = biological target: T2, CDK2/cyclin E1 (Homo sapiens, UniProt P24941); assay: CDK reactivity test 1 (Test Example 1); conditions: 10 μg/mL CDK/cyclin complex, 4 μg/mL substrate peptide, ATP-γS, 37° C. 1 hour
T2 construct: purchased SignalChem
Method: as §2, §1

CDK6/cyclin D3 = biological target: T3, CDK6/cyclin D3 (Homo sapiens, UniProt Q00534); assay: CDK reactivity test 1 (Test Example 1); conditions: 10 μg/mL CDK/cyclin complex, 4 μg/mL substrate peptide, ATP-γS, 37° C. 1 hour
T3 construct: purchased SignalChem
Method: as §2, §1

CDK1/cyclin A2 = biological target: T4, CDK1/cyclin A2 (Homo sapiens, UniProt P06493); assay: CDK reactivity test 1 (Test Example 1); conditions: 10 μg/mL CDK/cyclin complex, 4 μg/mL substrate peptide, ATP-γS, 37° C. 1 hour
T4 construct: purchased SignalChem
Method: as §2, §1

T3 sequence (Q00534 whole entry): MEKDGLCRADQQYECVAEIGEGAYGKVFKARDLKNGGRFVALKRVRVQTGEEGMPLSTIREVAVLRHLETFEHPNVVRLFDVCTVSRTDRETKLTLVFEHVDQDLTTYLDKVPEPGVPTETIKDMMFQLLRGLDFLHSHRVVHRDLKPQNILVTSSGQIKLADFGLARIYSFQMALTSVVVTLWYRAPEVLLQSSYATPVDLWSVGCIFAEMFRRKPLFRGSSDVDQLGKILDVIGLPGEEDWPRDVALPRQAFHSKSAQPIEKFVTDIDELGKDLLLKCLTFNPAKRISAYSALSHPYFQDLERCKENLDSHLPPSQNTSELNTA
T3 sequence (P30281 whole entry partner): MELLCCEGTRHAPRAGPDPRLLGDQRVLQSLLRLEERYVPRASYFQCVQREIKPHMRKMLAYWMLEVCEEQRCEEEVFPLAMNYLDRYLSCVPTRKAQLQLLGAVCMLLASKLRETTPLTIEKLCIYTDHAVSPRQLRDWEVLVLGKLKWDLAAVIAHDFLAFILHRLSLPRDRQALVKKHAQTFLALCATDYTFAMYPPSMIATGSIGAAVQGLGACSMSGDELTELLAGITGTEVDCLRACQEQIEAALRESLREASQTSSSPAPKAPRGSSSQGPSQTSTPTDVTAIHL
T4 sequence (P06493 whole entry): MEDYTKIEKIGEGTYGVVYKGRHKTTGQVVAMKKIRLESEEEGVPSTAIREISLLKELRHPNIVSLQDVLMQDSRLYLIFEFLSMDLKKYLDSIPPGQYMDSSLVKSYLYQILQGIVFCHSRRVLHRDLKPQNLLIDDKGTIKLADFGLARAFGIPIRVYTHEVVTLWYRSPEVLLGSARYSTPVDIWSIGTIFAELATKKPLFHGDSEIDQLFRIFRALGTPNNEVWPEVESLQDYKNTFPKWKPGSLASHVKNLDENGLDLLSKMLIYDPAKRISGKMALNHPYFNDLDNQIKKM
T4 sequence (P20248 whole entry partner): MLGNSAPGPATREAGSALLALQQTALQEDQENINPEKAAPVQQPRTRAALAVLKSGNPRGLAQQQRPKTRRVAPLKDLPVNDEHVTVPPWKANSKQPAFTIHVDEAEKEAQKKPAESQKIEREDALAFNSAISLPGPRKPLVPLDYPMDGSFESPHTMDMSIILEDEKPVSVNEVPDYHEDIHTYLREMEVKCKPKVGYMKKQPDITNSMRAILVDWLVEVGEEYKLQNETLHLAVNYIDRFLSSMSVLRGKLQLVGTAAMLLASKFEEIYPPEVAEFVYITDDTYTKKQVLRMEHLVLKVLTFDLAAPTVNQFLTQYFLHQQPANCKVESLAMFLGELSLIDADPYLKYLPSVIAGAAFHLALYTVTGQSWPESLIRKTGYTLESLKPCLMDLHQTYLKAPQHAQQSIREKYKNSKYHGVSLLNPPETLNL
T1 sequence (P11802 whole entry): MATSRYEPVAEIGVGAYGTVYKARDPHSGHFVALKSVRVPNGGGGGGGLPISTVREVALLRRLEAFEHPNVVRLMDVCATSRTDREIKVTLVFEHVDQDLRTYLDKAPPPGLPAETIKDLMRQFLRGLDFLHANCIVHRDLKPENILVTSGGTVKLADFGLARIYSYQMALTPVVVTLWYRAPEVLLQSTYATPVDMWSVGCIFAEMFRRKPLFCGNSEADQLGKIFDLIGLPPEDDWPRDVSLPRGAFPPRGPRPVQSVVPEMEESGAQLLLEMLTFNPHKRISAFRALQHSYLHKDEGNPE
T1 sequence (P30281 whole entry partner): as the sequence (P30281 whole entry partner) above

Sequence | CDK4/6 Reactivity (CDK4 and CDK6) | further results
GMPASPNPWWRGGGG ({Biotin-Ahx}-GMPASPNPWWRGGGG) [Polypeptide 5, mutant of Polypeptide 1, N-terminal biotin via aminohexane linker] | 1 | –
GMPWSANPWWRGGGG ({Biotin-Ahx}-GMPWSANPWWRGGGG) [Polypeptide 6, mutant of Polypeptide 1, N-terminal biotin via aminohexane linker] | 1 | –
PYKISEGLPTPTKMTPRSRI ({Biotin-Ahx}-PYKISEGLPTPTKMTPRSRI) [Comparative Polypeptide 1, partial peptide of Rb protein which is an in vivo substrate of CDK; N-terminal biotin via aminohexane linker] | – | Luminescence intensity (CDK4/cyclin D3): 810,674; Luminescence intensity (CDK2/cyclin E1): 104,410,578; Luminescence intensity (CDK6/cyclin D3): 7,417,238; Luminescence intensity (CDK1/cyclin A2): 67,564,327
GMWWSPNPWWRGGGG ({Biotin-Ahx}-GMWWSPNPWWRGGGG) [Polypeptide C, mutant of Polypeptide 1, N-terminal biotin via aminohexane linker] | 5 | –
GMPWSFNPWWRGGGG ({Biotin-Ahx}-GMPWSFNPWWRGGGG) [Polypeptide 16, mutant of Polypeptide 1, N-terminal biotin via aminohexane linker] | 2 | –
GMPFSPNPWWRGGGG ({Biotin-Ahx}-GMPFSPNPWWRGGGG) [Polypeptide 13, mutant of Polypeptide 1, N-terminal biotin via aminohexane linker] | 5 | –
GMPWSPNPWWHGGGG ({Biotin-Ahx}-GMPWSPNPWWHGGGG) [Polypeptide A, mutant of Polypeptide 1, N-terminal biotin via aminohexane linker] | 7 | –
GMPWSWNPWWRGGGG ({Biotin-Ahx}-GMPWSWNPWWRGGGG) [Polypeptide 15, mutant of Polypeptide 1, N-terminal biotin via aminohexane linker] | 2 | –
GMPWSYNPWWRGGGG ({Biotin-Ahx}-GMPWSYNPWWRGGGG) [Polypeptide 17, mutant of Polypeptide 1, N-terminal biotin via aminohexane linker] | 2 | –
GMPWSPAPWWRGGGG ({Biotin-Ahx}-GMPWSPAPWWRGGGG) [Polypeptide 7, mutant of Polypeptide 1, N-terminal biotin via aminohexane linker] | 8 | –
GMPWSPNPWWKGGGG ({Biotin-Ahx}-GMPWSPNPWWKGGGG) [Polypeptide B, mutant of Polypeptide 1, N-terminal biotin via aminohexane linker] | 5 | –
GMFWSPNPWWRGGGG ({Biotin-Ahx}-GMFWSPNPWWRGGGG) [Polypeptide D, mutant of Polypeptide 1, N-terminal biotin via aminohexane linker] | 5 | –
GMAWSPNPWWRGGGG ({Biotin-Ahx}-GMAWSPNPWWRGGGG) [Polypeptide 4, mutant of Polypeptide 1, N-terminal biotin via aminohexane linker] | 5 | –
GMPWSPNPAWRGGGG ({Biotin-Ahx}-GMPWSPNPAWRGGGG) [Polypeptide 9, mutant of Polypeptide 1, N-terminal biotin via aminohexane linker] | 7 | –
AMPWSPNPWWRGGGG ({Biotin-Ahx}-AMPWSPNPWWRGGGG) [Polypeptide 2, mutant of Polypeptide 1, N-terminal biotin via aminohexane linker] | 15 | –
GMPWSPNPWWRAGGG ({Biotin-Ahx}-GMPWSPNPWWRAGGG) [Polypeptide 12, mutant of Polypeptide 1, N-terminal biotin via aminohexane linker] | 6 | –
GMYWSPNPWWRGGGG ({Biotin-Ahx}-GMYWSPNPWWRGGGG) [Polypeptide E, mutant of Polypeptide 1, N-terminal biotin via aminohexane linker] | 6 | –
GMPWSPNPWWAGGGG ({Biotin-Ahx}-GMPWSPNPWWAGGGG) [Polypeptide 11, mutant of Polypeptide 1, N-terminal biotin via aminohexane linker] | 3 | –
GMPWSPNPWWRGGGG ({Biotin-Ahx}-GMPWSPNPWWRGGGG) [Polypeptide 1, N-terminal residue biotin-modified via a linker (aminohexane)] | 13 | Luminescence intensity (CDK4/cyclin D3): 101,127,359; Luminescence intensity (CDK2/cyclin E1): 99,167,362; Luminescence intensity (CDK6/cyclin D3): 122,281,045; Luminescence intensity (CDK1/cyclin A2): 93,190,919
GAPWSPNPWWRGGGG ({Biotin-Ahx}-GAPWSPNPWWRGGGG) [Polypeptide 3, mutant of Polypeptide 1, N-terminal biotin via aminohexane linker] | 33 | –
GMPYSPNPWWRGGGG ({Biotin-Ahx}-GMPYSPNPWWRGGGG) [Polypeptide 14, mutant of Polypeptide 1, N-terminal biotin via aminohexane linker] | 5 | –
GMPWSPNAWWRGGGG ({Biotin-Ahx}-GMPWSPNAWWRGGGG) [Polypeptide 8, mutant of Polypeptide 1, N-terminal biotin via aminohexane linker] | 7 | –
AMPWSPAPAARAGGG ({Biotin-Ahx}-AMPWSPAPAARAGGG) [Polypeptide F, mutant of Polypeptide 1, N-terminal biotin via aminohexane linker] | 7 | –
RRRFRPASPLRGPPK ({Biotin-Ahx}-RRRFRPASPLRGPPK) [Comparative Polypeptide 2, polypeptide known as a substrate of CDK4 and CDK6; N-terminal biotin via aminohexane linker] | – | Luminescence intensity (CDK4/cyclin D3): 5,439,800; Luminescence intensity (CDK2/cyclin E1): 16,211,368; Luminescence intensity (CDK6/cyclin D3): 17,316,904; Luminescence intensity (CDK1/cyclin A2): 41,516,306
GMPWSPNPWARGGGG ({Biotin-Ahx}-GMPWSPNPWARGGGG) [Polypeptide 10, mutant of Polypeptide 1, N-terminal biotin via aminohexane linker] | 15 | –
